Patent publication US20250129088A1, “CEREBLON E3 UBIQUITIN LIGASE INHIBITOR” (Gan & Lee Pharmaceuticals Co., Ltd., priority 2022, published 2025)
pIC50: −log10 of the molar value.

Assays:
E3 ubiquitin ligase CRBN = E3 ubiquitin ligase CRBN (Homo sapiens (Human), UniProt Q96SW2); experiment: CRBN binding activity, HTRF competition with Thalidomide-Red (CEREBLON BINDING KIT); settings: competition with XL665-labelled thalidomide, 3 hours room temperature
Experimental: From this, the binding force of the compounds to the CRBN protein was determined.
CRBN binding activity test kit (CEREBLON BINDING KITS (PE, 64BDCRBNPEG).
The detection is based on homogeneous time-resolved fluorescence (HTRF) technology.
The donor used in this kit was Europium-labeled GST antibody (GST Eu Cryptate Antibody), and the acceptor was thalidomide labeled with XL665 (Thalidomide-Red reagent). The donor binded to the CRBN protein containing the GST tag.
The donor and acceptor were diluted 50 times using the binding buffer from the kit (PROTAC binding buffer 1). The CRBN protein was diluted 45 times. The disclosed compound solution at 8 mM was diluted 10 times with the diluent from the kit (1× diluent), followed by a five-fold gradient dilution, performed 7 times sequentially.
Incubate at room temperature for 3 hours.
The ratio of the emission signals from the acceptor and donor in each individual well is calculated.
The coefficient of variation (CV)=standard deviation (SD)/mean Ratio*100
Using GraphPad Prism, IC50 values were calculated based on compound concentration, Ratio and coefficient of variation.

JeKo-1 cells = experiment: JeKo-1 cell proliferation inhibition, CCK-8; assay type: cell-based; settings: Homo sapiens, 96 h, JeKo-1, 4 days
Experimental: The complete medium required for JeKo-1 cells is RPMI1640 (ATCC, Product number: 30-2001) basal medium containing 20% fetal bovine serum. The JeKo-1 cells were seeded in a 96-well plate at a density of 10,000 cells/well, and different concentrations of the compounds of the present invention were prepared to treat the cells at the same time. The cells were incubated at a 37° C., 5% CO2 cell culture incubator for 4 days. Cell viability was detected using the CCK-8 kit (Beyotime, Product number: C0040) according to the manufacturer's instructions. According to the inhibition rate, the GraphPad Prism software was used to calculate the IC50 value of each compound for 4 days, and the results are shown in Table 13.

Z138 cells = experiment: Z138 cell proliferation inhibition, CCK-8; assay type: cell-based; settings: Homo sapiens, Z-138, 96 h, Z138, 4 days
Experimental: The complete medium required for Z138 cells is IMDM (ATCC, Product number: 30-2005) basal medium containing 10% horse serum. Z138 cells were seeded in a 96-well plate at a density of 10,000 cells/well, and different concentrations of the compound of the present invention and a positive control sample Ibrutinib (source: Bide Pharmaceuticals) were prepared to treat the cells. The cells were incubated in a 37° C., 5% CO2 cell incubator for 4 days. Cell viability was detected using the CCK-8 kit (Beyotime, Product number: C0040) according to the manufacturer's instructions. According to the inhibition rate, the GraphPad Prism software was used to calculate the IC50 value of each compound for 4 days, and the results are shown in Table 14.

pIC50 (E3 ubiquitin ligase CRBN) | SMILES | pIC50 (JeKo-1 cells) | pIC50 (Z138 cells)
5.52 | O=C1CCC(N2Cc3cc4c(cc3C2=O)CCC2(CCNCC2)O4)C(=O)N1 (stereo not drawn) [Compound12, 3-(6′-oxo-3′,4′,6′,8′-tetrahydro-7′H-spiro[piperidine-4,2′-pyrano[2,3-f]isoindole]-7′-yl)piperidine-2,6-dione] | – | –
5.41 | O=C1CCC(N2Cc3cc4c(cc3C2=O)CCC2(CNC2)O4)C(=O)N1 (stereo not drawn) [Compound13, 3-(6′-oxo-3′,4′,6′,8′-tetrahydro-7′H-spiro[azetidine-3,2′-pyrano[2,3-f]isoindole]-7′-yl)piperidine-2,6-dione] | – | –
5.92 | O=C1CCC(N2Cc3cc4c(cc3C2=O)OCC2(CCNCC2)O4)C(=O)N1 (stereo not drawn) [Compound16, 3-(6′-oxo-6′,8′-dihydro-3′H,7′H-spiro[piperidine-4,2′-[1,4]dioxino[2,3-f]isoindole]-7′-yl)piperidine-2,6-dione] | – | –
– | Nc1ncnc2c1c(-c1ccc(Oc3ccccc3)cc1)nn2[C@@H]1CCCN(CCOCCC(=O)N2CCC3(CCc4cc5c(cc4O3)C(=O)N(C3CCC(=O)NC3=O)C5=O)CC2)C1 (stereo partly drawn) [PROTAC 32, 1-(3-(2-((R)-3-(4-amino-3-(4-phenoxyphenyl)-1H-pyrazolo[3,4-d]pyrimidin-1-yl)piperidin-1-yl)ethoxy)propionyl)-7′-(2,6-dioxopiperidin-3-yl)-3′,4′-dihydro-6′H-spiro[piperidin-4,2′-pyrano[2,3-f]isoindole]-6′,8′(7′H)-dione] | 4.74 | 4.80
– | Nc1ncnc2c1c(-c1ccc(Oc3ccccc3)cc1)nn2[C@@H]1CCCN(CCOCCC(=O)N2CC3(CCc4cc5c(cc4O3)C(=O)N(C3CCC(=O)NC3=O)C5=O)C2)C1 (stereo partly drawn) [PROTAC 33, 1-(3-(2-((R)-3-(4-amino-3-(4-phenoxyphenyl)-1H-pyrazolo[3,4-d]pyrimidin-1-yl)piperidin-1-yl)ethoxy)propionyl)-7′-(2,6-dioxopiperidin-3-yl)-3′,4′-dihydro-6′H-spiro[azetidine-3,2′-pyrano[2,3-f]isoindole]-6′,8′(7′H)-dione] | 4.20 | 4.46
– | Nc1ncnc2c1c(-c1ccc(Oc3ccccc3)cc1)nn2[C@@H]1CCCN(CCOCCC(=O)N2CCC3(CCc4cc5c(cc4O3)CN(C3CCC(=O)NC3=O)C5=O)CC2)C1 (stereo partly drawn) [PROTAC 35, 3-(1-(3-(2-((R)-3-(4-amino-3-(4-phenoxyphenyl)-1H-pyrazolo[3,4-d]pyrimidine-1-yl)piperidin-1-yl)ethoxy)propionyl)-6′-oxo-3′,4′,6′,8′-tetrahydro-7′H-spiro[piperidine-4, 2′-pyrano[2,3-f]isoindol]-7′-yl)piperidine-2,6-dione] | 4.72 | 4.65
– | Nc1ncnc2c1c(-c1ccc(Oc3ccccc3)cc1)nn2[C@@H]1CCCN(CCOCCC(=O)N2CCC3(CCc4cc5c(cc4O3)C(=O)N(C3CCC(=O)NC3=O)C5)CC2)C1 (stereo partly drawn) [PROTAC 36, 3-(1-(3-(2-((R)-3-(4-amino-3-(4-phenoxyphenyl)-1H-pyrazolo[3,4-d]pyrimidine-1-yl)piperidin-1-yl)ethoxy)propionyl)-8′-oxo-3′,4′,6′,8′-tetrahydro-7′H-spiro[piperidine-4, 2′-pyrano[2,3-f]isoindol]-7′-yl)piperidine-2,6-dione] | 4.72 | 4.59
– | Nc1ncnc2c1c(-c1ccc(Oc3ccccc3)cc1)nn2[C@@H]1CCCN(CCOCCC(=O)N2CCC3(CC2)COc2cc4c(cc2O3)CN(C2CCC(=O)NC2=O)C4=O)C1 (stereo partly drawn) [PROTAC 37, 3-(1-(3-(2-((R)-3-(4-amino-3-(4-phenoxyphenyl)-1H-pyrazolo[3,4-d]pyrimidine-1-yl)piperidin-1-yl)ethoxy)propionyl)-6′-oxo-6′,8′-dihydro-3′H,7′H-spiro[piperidine-4,2′-[1,4]dioxino[2,3-f]isoindole]-7′-yl)piperidine-2,6-dione] | 4.49 | 4.44

SMILES | pIC50 (E3 ubiquitin ligase CRBN) | pIC50 (JeKo-1 cells) | pIC50 (Z138 cells)
O=C1CCC(N2C(=O)c3cc4c(cc3C2=O)C2(CCNCC2)CO4)C(=O)N1 (stereo not drawn) [Compound17, 6-(2,6-dioxopiperidin-3-yl)-6-hydro-2H, 5H-spiro[[2,3-f]isoindole-3,4′-piperidin]-5,7-dione] | 4.82 | – | –
O=C1CCC(N2C(=O)c3ccc4c(c3C2=O)C2(CCNCC2)CO4)C(=O)N1 (stereo not drawn) [Compound27, 2-(2,6-dioxopiperidin-3-yl)-2-hydro-1H,7H-spiro[furo[3,2-e]isoindole-8,4′-piperidine]-1,3-dione] | 4.44 | – | –
